The text below walks through data of US9920010B2, “CXCR7 receptor modulators” (IDORSIA PHARMACEUTICALS LTD, priority 2013, dated 2018).

The EC50 is the concentration needed to bring the measured effect to its halfway point. A high value points to a less potent agent.

In this assay the target is T1, CXCR7 (Homo sapiens, UniProt P25106).
T1 construct: host or cells: CHO-K1 (PathHunter CHO-K1 CXCR7 b-arrestin cell line, stably transfected)
Kind of assay: PathHunter CHO-K1 CXCR7 b-arrestin recruitment assay (CXCR7 agonistic activity). It is filed as cell-based. The note with it: PathHunter CHO-K1 CXCR7 b-arrestin cell line. Here is the method:
The CXCl12 receptor and CXCR7 agonistic activities of the compounds of formula (I) are determined in accordance with the following experimental method.
The assay is using the PathHunter™ CHO-K1 CXCR7 b-arrestin cell line from DiscoverX. The system is based on the Enzyme Fragment Complementation Technology. Two complementing fragments of the b-galactosidase enzyme are expressed within stably transfected cells. The larger portion of b-gal, termed EA for Enzyme Acceptor, is fused to the C-terminus of b-arrestin 2. The smaller fragment, termed ProLink™ tag, is fused to CXCR7 at the C-terminus. Upon activation, b-arrestin is recruited which forces the interaction of ProLink and EA, allowing complementation of the two fragments of b-gal and the formation of a functional enzyme which is capable of hydrolysing the substrate and generating a chemiluminescent signal.
CHO-K1 CXCR7 b-arrestin cells are detached from culture dishes with a cell dissociation buffer (Invitrogen, #13151-014) and collected in growing medium (F12 HAMS 90% (v/v)/FCS 10% (v/v), Penicillin/streptomycin 1% (v/v)). 5000 cells per well (in 20 μl) are seeded in a 384 well plate (white-walled, clear bottom; BD Falcon #353274). The plate is incubated at 37° C./5% CO2 for 24 hours. Medium is then replaced by 20 μl OPTIMEM (Invitrogen #31985) for 3 to 4 hours. Test compounds are dissolved at 10 mM in DMSO and serially diluted in DMSO to 200× of the final concentration for dose response curves. Compounds are then diluted 1:33.3 in HBSS1×. 5 μl/well of HBSS1×/20 mM HEPES/0.2% BSA are added to the assay plate followed by addition of 5 μl/well of diluted compounds. CXCL12 (Peprotech #300-28A) may be used as a reference agonist. The plate is incubated for 90 minutes at 37° C. 12 μl of detection reagent (Path Hunter Detection Kit, DiscoveRx, #93-0001) is transferred to the assay plate and to the plate is incubated for 1 hour at room temperature. Luminescent signal is read in a microplate reader (FLUOstar Optima, bmg). The calculated EC50 values may fluctuate depending on the daily cellular assay performance. Fluctuations of this kind are known to those skilled in the art. Average EC50 values from several measurements are given as geometric mean values.
On the technique in general: Activated receptors often draw arrestin, which recruitment assays turn into a signal.

T1 sequence (P25106 whole entry): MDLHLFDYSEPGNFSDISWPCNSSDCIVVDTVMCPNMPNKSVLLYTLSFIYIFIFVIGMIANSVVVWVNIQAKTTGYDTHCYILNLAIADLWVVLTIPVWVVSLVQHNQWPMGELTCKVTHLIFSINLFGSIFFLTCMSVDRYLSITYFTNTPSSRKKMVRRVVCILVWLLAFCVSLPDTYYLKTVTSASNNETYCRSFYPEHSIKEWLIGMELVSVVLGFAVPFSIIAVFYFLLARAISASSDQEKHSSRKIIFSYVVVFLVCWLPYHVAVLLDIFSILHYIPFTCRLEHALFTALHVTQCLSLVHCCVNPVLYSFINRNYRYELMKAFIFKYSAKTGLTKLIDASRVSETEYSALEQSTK
T1 sequence (P32121 whole entry partner): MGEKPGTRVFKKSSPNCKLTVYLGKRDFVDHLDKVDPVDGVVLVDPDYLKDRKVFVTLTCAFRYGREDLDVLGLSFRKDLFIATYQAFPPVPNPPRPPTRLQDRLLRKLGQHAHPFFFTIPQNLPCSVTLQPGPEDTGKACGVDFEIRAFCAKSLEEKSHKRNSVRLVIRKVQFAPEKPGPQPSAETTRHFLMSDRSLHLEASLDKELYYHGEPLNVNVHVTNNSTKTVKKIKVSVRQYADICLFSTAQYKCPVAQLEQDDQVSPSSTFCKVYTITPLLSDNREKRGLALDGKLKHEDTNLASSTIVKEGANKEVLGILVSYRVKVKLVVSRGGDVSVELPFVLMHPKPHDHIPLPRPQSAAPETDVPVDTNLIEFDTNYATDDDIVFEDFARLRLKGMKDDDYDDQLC

Turning to `CN(C)CCN(Cc1ccccc1C(F)(F)F)C(=O)CCc1cccc2c1CN(CC1CC1)CC2` [compound 454, 3-(2-Cyclopropylmethyl-1,2,3,4-tetrahydro-isoquinolin-8-yl)-N-(2-dimethylamino-ethyl)-N-(2-trifluoromethyl-benzyl)-propionamide], the concentration for a half-maximal effect (EC50) turned out to be 3 nM.

`CNCCN(Cc1ccccc1C(F)(F)F)C(=O)CNc1cccc2c1CN(CC1CC1)CC2` [compound 384, 2-(2-Cyclopropylmethyl-1,2,3,4-tetrahydro-isoquinolin-8-ylamino)-N-(2-methylamino-ethyl)-N-(2-trifluoromethyl-benzyl)-acetamide] had an EC50 of 4 nM.

The molecule `COCCN1CCc2c(CCC(=O)N(Cc3ccccc3C(F)(F)F)CC(O)COC)cccc2C1` (stereo not shown) [Example 339, N-(2-Hydroxy-3-methoxy-propyl)-3-[2-(2-methoxy-ethyl)-1,2,3,4-tetrahydro-isoquinolin-5-yl]-N-(2-trifluoromethyl-benzyl)-propionamide] yielded an EC50 of 457 nM.

Turning to `CC(C)(O)CN(Cc1ncccc1Cl)C(=O)CNc1cccc2c1CN(C1CCC1)CC2` [compound 457], the midpoint of the response, the EC50, lay at 232 nM.

Molecule `CCn1ccc(C(C)N(Cc2ccccc2C(F)(F)F)C(=O)CNc2cccc3c2CCN(CC2CC2)C3)n1` (racemic) [Example 80, rac-2-(2-Cyclopropylmethyl-1,2,3,4-tetrahydro-isoquinolin-5-ylamino)-N-[1-(1-ethyl-1H-pyrazol-3-yl)-ethyl]-N-(2-trifluoromethyl-benzyl)-acetamide] gave an EC50 of 47 nM.

“2-(2-Cyclopropylmethyl-1,2,3,4-tetrahydro-isoquinolin-5-ylamino)-N-isoxazol-5-ylmethyl-N-(2-trifluoromethyl-benzyl)-acetamide [Example 250]” displayed an EC50 of 31 nM.

`CN(C)CCN(Cc1ccccc1C(F)(F)F)C(=O)CNc1cccc2c1CCN(CC1CC1)C2` [Example 76, 2-(2-Cyclopropylmethyl-1,2,3,4-tetrahydro-isoquinolin-5-ylamino)-N-(2-dimethylamino-ethyl)-N-(2-trifluoromethyl-benzyl)-acetamide] displayed an EC50 of 2 nM.

Consider `CN(CCN(Cc1ncccc1C(F)(F)F)C(=O)CNc1cccc2c1CN(CC1CC1)CC2)CC(F)(F)F` [compound 477], for which the EC50 was 63 nM.

For the molecule `O=C(CNc1cccc2c1CCN(CC1CC1)C2)N(Cc1ccccc1C(F)(F)F)C1CCNCC1` [compound 440, 2-(2-Cyclopropylmethyl-1,2,3,4-tetrahydro-isoquinolin-5-ylamino)-N-piperidin-4-yl-N-(2-trifluoromethyl-benzyl)-acetamide], it took 15 nM to reach a half-maximal effect (EC50).

`CN(C)CCN(Cc1ccccc1C(F)(F)F)C(=O)CNc1cccc2c1CCN(C1CCCC1)C2` [Example 210, 2-((2-Cyclopentyl-1,2,3,4-tetrahydroisoquinolin-5-yl)amino)-N-(2-(dimethylamino)ethyl)-N-(2-(trifluoromethyl)benzyl)acetamide] returned an EC50 of 5 nM.

In turn, `CCCOC(=O)N1CCc2c(cccc2NCC(=O)N(CCNC)Cc2ccccc2C(F)(F)F)C1` [compound 398] returned an EC50 of 82 nM.

`O=C(CNc1cccc2c1CCN(CC1CC1)C2)N(CCN1CCCC(F)(F)C1)Cc1ncccc1C(F)(F)F` [Example 283, 2-(2-Cyclopropylmethyl-1,2,3,4-tetrahydro-isoquinolin-5-ylamino)-N-[2-(3,3-difluoro-piperidin-1-yl)-ethyl]-N-(3-trifluoromethyl-pyridin-2-ylmethyl)-acetamide] gave an EC50 of 11 nM.

`CCN1CCc2c(CCC(=O)N(CCN(C)C)Cc3ccccc3Cl)cccc2C1` [compound 155, N-(2-Chloro-benzyl)-N-(2-dimethylamino-ethyl)-3-(2-ethyl-1,2,3,4-tetrahydro-isoquinolin-5-yl)-propionamide] gave a 50% effective concentration (EC50) of 17 nM.

For `COC(=O)CN1CCc2c(cccc2NCC(=O)N(CCN(C)C)Cc2ncccc2C(F)(F)F)C1` [Example 370, [5-({[(2-Dimethylamino-ethyl)-(3-trifluoromethyl-pyridin-2-ylmethyl)-carbamoyl]-methyl}-amino)-3,4-dihydro-1H-isoquinolin-2-yl]-acetic acid methyl ester], the concentration for a half-maximal effect (EC50) came out at 40 nM.

In turn, `CCN1CCc2cccc(NCC(=O)N(CCN(C)C)Cc3cccc(F)c3)c2C1` [compound 503] yielded an EC50 of 65 nM.

`CN(C)CCN(Cc1ccccc1C(F)(F)F)C(=O)NCc1cccc2c1CN(CC1CC1)CC2` [Example 569, 3-(2-Cyclopropylmethyl-1,2,3,4-tetrahydro-isoquinolin-8-ylmethyl)-1-(2-dimethylamino-ethyl)-1-(2-trifluoromethyl-benzyl)-urea] came in with an EC50 of 26 nM.

Consider `CN(C)CCN(Cc1ccccc1)C(=O)COc1cccc2c1CCN(C)C2` [compound 164], for which a half-maximal response (EC50) required 84 nM.

Molecule `CCC(=O)N1CCc2c(cccc2NCC(=O)N(CCN(C)C)Cc2ccccc2C(F)(F)F)C1` [Example 35, N-(2-Dimethylamino-ethyl)-2-(2-propionyl-1,2,3,4-tetrahydro-isoquinolin-5-ylamino)-N-(2-trifluoromethyl-benzyl)-acetamide] came in with an EC50 of 4 nM.

Turning to `COCCN1CCc2c(CCC(=O)N(Cc3ccccc3C(F)(F)F)CC3(C)COC3)cccc2C1` [Example 343, 3-[2-(2-Methoxy-ethyl)-1,2,3,4-tetrahydro-isoquinolin-5-yl]-N-(3-methyl-oxetan-3-ylmethyl)-N-(2-trifluoromethyl-benzyl)-propionamide], the 50% effective concentration (EC50) turned out to be 415 nM.

Take `CN(C)CCN(Cc1ccccc1C(F)(F)F)C(=O)CNc1cccc2c1CCN(C(=O)C1CC1(F)F)C2` (racemic) [Example 570, rac-2-[2-(2,2-Difluoro-cyclopropanecarbonyl)-1,2,3,4-tetrahydro-isoquinolin-5-ylamino]-N-(2-dimethylamino-ethyl)-N-(2-trifluoromethyl-benzyl)-acetamide]: the EC50 is 14 nM.

Regarding `CN(C)CCN(Cc1ccncn1)C(=O)CNc1cccc2c1CCN(CC1CC1)C2` [Example 255, 2-(2-Cyclopropylmethyl-1,2,3,4-tetrahydro-isoquinolin-5-ylamino)-N-(2-dimethylamino-ethyl)-N-pyrimidin-4-ylmethyl-acetamide], the EC50 was found to be 390 nM.

In turn, `CCN1CCc2cccc(NCC(=O)N(Cc3ccccc3C(F)(F)F)C3CCCN(C)C3)c2C1` (racemic) [compound 518] showed an EC50 of 9 nM.

As for `CCN1CCc2cccc(NCC(=O)N(CCN(C)C)Cc3cccc(C)c3)c2C1` [compound 495], the EC50 is 63 nM.

As for `CN(C)CCN(Cc1ccccc1C(F)(F)F)C(=O)CNc1cccc2c1CCN(c1ccccn1)C2` [Example 374, N-(2-Dimethylamino-ethyl)-2-(2-pyridin-2-yl-1,2,3,4-tetrahydro-isoquinolin-5-ylamino)-N-(2-trifluoromethyl-benzyl)-acetamide], the midpoint of the response, the EC50, lay at 5 nM.

Turning to `CCC(=O)N1CCc2c(cccc2NCC(=O)N(CCN2CCCC2)Cc2ccccc2)C1` [Example 24, N-Benzyl-2-(2-propionyl-1,2,3,4-tetrahydro-isoquinolin-5-ylamino)-N-(2-pyrrolidin-1-yl-ethyl)-acetamide], a half-maximal effect (EC50) was put at 28 nM.

Regarding `O=C(CNc1cccc2c1CCN(CC1CC1)C2)N(CCOCc1ccccc1)Cc1ccccc1C(F)(F)F` [Example 82, N-(2-Benzyloxy-ethyl)-2-(2-cyclopropylmethyl-1,2,3,4-tetrahydro-isoquinolin-5-ylamino)-N-(2-trifluoromethyl-benzyl)-acetamide], the response was half-maximal at 158 nM (EC50).

As to `CCN1CCc2cccc(OC(C)C(=O)N(CCN(C)C)Cc3ccccc3C(F)(F)F)c2C1` (stereo not shown) [compound 548], it took 133 nM to reach a half-maximal effect (EC50).

`O=C(CNc1cccc2c1CN(CC1CC1)CC2)N(CC(=O)N1CC(F)(F)C1)Cc1ccccc1C(F)(F)F` [compound 482, 2-(2-Cyclopropylmethyl-1,2,3,4-tetrahydro-isoquinolin-8-ylamino)-N-[2-(3,3-difluoro-azetidin-1-yl)-2-oxo-ethyl]-N-(2-trifluoromethyl-benzyl)-acetamide]: the EC50 is 32 nM.

The molecule `CCN1CCc2cccc(NCC(=O)N(CCN(C)C)Cc3ccccc3)c2C1` [Example 185, N-Benzyl-N-(2-dimethylamino-ethyl)-2-(2-ethyl-1,2,3,4-tetrahydro-isoquinolin-8-ylamino)-acetamide] had a half-maximal effective concentration (EC50) of 79 nM.

As to `CC(C)(O)CN(Cc1ncccc1Cl)C(=O)CNc1cccc2c1CN(CC1CC1)CC2` [compound 487], the midpoint of the response, the EC50, lay at 100 nM.

`CNCCN(Cc1ncccc1C(F)(F)F)C(=O)CNc1cccc2c1CCN(C(=O)OCCOC)C2` [compound 427]: the EC50 was found to be 106 nM.
